From patent US20240158392A1 (Janssen Biotech, Inc., priority 2021, published 2024)

The molecules below were run against SIK2 (Homo sapiens, UniProt Q9H0K1) (assay: SIK2 Enzymatic Assay High Version 2 (High ATP)). Settings: not given.
SIK2, sequence (Q9H0K1 whole entry, species assumed): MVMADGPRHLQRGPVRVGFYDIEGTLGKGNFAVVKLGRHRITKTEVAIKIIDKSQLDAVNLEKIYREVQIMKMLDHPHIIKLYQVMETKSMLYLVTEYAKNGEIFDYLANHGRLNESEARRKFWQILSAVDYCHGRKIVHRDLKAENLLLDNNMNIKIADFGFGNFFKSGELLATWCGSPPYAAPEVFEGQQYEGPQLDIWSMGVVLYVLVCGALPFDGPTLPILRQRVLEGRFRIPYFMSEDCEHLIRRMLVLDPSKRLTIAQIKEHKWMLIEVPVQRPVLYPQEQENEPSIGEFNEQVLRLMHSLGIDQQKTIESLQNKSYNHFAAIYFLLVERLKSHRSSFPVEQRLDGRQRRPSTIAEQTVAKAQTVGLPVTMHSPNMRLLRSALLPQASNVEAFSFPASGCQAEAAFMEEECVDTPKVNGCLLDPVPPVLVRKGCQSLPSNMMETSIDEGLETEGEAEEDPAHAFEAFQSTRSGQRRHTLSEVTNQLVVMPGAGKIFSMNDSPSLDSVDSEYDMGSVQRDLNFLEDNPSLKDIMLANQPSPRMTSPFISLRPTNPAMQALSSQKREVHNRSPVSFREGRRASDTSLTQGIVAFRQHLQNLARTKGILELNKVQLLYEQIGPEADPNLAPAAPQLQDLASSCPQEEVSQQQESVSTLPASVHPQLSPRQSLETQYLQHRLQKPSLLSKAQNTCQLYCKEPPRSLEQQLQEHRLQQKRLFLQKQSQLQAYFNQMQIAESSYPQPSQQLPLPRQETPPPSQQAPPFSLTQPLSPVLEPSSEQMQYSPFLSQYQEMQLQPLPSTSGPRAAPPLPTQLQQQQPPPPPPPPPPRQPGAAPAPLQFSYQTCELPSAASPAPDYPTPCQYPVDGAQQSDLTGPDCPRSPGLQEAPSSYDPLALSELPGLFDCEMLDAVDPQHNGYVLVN
Format: biochemical
In short: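 At room temperature, enzyme (6 nM, 2× final) was preincubated with compound for 30 min, then 6 mM ATP and 400 μM HDAC5tide (both 2× final) were added for 2 h. ADP formed was measured by ADP-Glo Max (2 h reagent, 1 h detection) using luminescence.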
`Cc1cc(-c2ccn3nc(Nc4ccc(F)cn4)cc3c2)c(O[C@H]2C[C@H]3COC[C@@H](C2)N3)cn1` [Example 127, 5-(5-(((1R,5S,7s)-3-oxa-9-azabicyclo[3.3.1]nonan-7-yl)oxy)-2-methylpyridin-4-yl)-N-(5-fluoropyridin-2-yl)pyrazolo[1,5-a]pyridin-2-amine] showed an IC50 of under 0.000847 µM. With `CCNC(=O)c1ccc(Nc2cc3cc(-c4cc(C)ncc4O[C@H]4C[C@H]5COC[C@@H](C4)N5)ccn3n2)nn1` [Example 385, N-ethyl-6-[[5-[2-methyl-5-[[(1S,5R,7s)-3-oxa-9-azabicyclo[3.3.1]nonan-7-yl]oxy]-4-pyridyl]pyrazolo[1,5-a]pyridin-2-yl]amino]pyridazine-3-carboxamide] the IC50 was 0.0012 µM.

Same assay, conditions: enzyme 6 nM, 6 mM ATP and 400 μM HDAC5tide (each 2× final concentration); 30 minutes pre-incubation, 2 hours; ADP-Glo Max luminescence; read-out: SIK2 high ATP IC50 (μM) (Test Example 2)
`Cc1cc(-c2ccn3nc(Nc4cc(C)nc(N5CCCC5)n4)cc3c2)c(O[C@H]2CC[C@H](O)CC2)cn1` [Example 287, 4-[[6-methyl-4-[2-[(6-methyl-2-pyrrolidin-1-yl-pyrimidin-4-yl)amino]pyrazolo[1,5-a]pyridin-5-yl]-3-pyridyl]oxy]cyclohexanol] showed an IC50 of 0.00144 µM. In the case of `Cc1cc(-c2ccn3nc(Nc4cc(C)nc(C)n4)cc3c2)c(OC[C@H](O)C2(C)CC2)cn1` (single isomer, unassigned) [Example 548, (*R)-2-[[4-[2-[(2,6-dimethylpyrimidin-4-yl)amino]pyrazolo[1,5-a]pyridin-5-yl]-6-methyl-3-pyridyl]oxy]-1-(1-methylcyclopropyl)ethanol], the IC50 is reported as 0.0462 µM. Molecule `Cc1cc(-c2ccn3nc(Nc4cc(C(F)(F)F)c(C(=O)NCC(F)(F)F)cn4)cc3c2)c(OCC(C)(C)O)cn1` [Example 651, 6-[[5-[5-(2-hydroxy-2-methyl-propoxy)-2-methyl-4-pyridyl]pyrazolo[1,5-a]pyridin-2-yl]amino]-N-(2,2,2-trifluoroethyl)-4-(trifluoromethyl)pyridine-3-carboxamide] has an IC50 of 0.194 µM. Molecule `Cc1cc(Nc2cc3cc(-c4cc(OCCF)ncc4OCC(C)(C)C#N)ccn3n2)nc(C)n1` [Example 673, 3-[[4-[2-[(2,6-dimethylpyrimidin-4-yl)amino]pyrazolo[1,5-a]pyridin-5-yl]-6-(2-fluoroethoxy)-3-pyridyl]oxy]-2,2-dimethyl-propanenitrile] has an IC50 of 0.00229 µM. Work on `Cc1cc(-c2ccn3nc(Nc4cc(C)nc(C)n4)cc3c2)c(O[C@@H]2CCS(=O)(=O)C2)cn1` [Example 344, N-(2,6-dimethylpyrimidin-4-yl)-5-[5-[(3R)-1,1-dioxothiolan-3-yl]oxy-2-methyl-4-pyridyl]pyrazolo[1,5-a]pyridin-2-amine] yielded an IC50 of 0.00362 µM. `COc1cc(Nc2cc3cc(-c4cc(C)ncc4O[C@H]4CC[C@H](O)CC4)ccn3n2)ccc1C(=O)NC1CC1` [Example 242, N-cyclopropyl-4-[[5-[5-(4-hydroxycyclohexoxy)-2-methyl-4-pyridyl]pyrazolo[1,5-a]pyridin-2-yl]amino]-2-methoxy-benzamide] was tested, and the IC50 was 0.0448 µM. `Cc1cc(-c2ccn3nc(Nc4cc(C)nc(C)n4)cc3c2)c(O[C@@H]2COC(C)(C)C2)cn1` (single isomer, unassigned) [Example 533, (*S)—N-(2,6-dimethylpyrimidin-4-yl)-5-[5-(5,5-dimethyltetrahydrofuran-3-yl)oxy-2-methyl-4-pyridyl]pyrazolo[1,5-a]pyridin-2-amine] gave an IC50 of 0.00543 µM. `Cc1cc(Nc2cc3cc(-c4cc(OC(F)F)ncc4OCC(C)(C)C(N)=O)ccn3n2)nc(C)n1` [Example 727, 3-[[6-(difluoromethoxy)-4-[2-[(2,6-dimethylpyrimidin-4-yl)amino]pyrazolo[1,5-a]pyridin-5-yl]-3-pyridyl]oxy]-2,2-dimethyl-propanamide] showed an IC50 of 0.0152 µM. `Cc1cc(-c2ccn3nc(Nc4cc(C)c(C)nn4)cc3c2)c(OCC(C)(C)O)cn1` [Example 201, 1-[[4-[2-[(5,6-dimethylpyridazin-3-yl)amino]pyrazolo[1,5-a]pyridin-5-yl]-6-methyl-3-pyridyl]oxy]-2-methyl-propan-2-ol] was tested, and the IC50 was 0.0641 µM.
